The record followed here is ChEMBL document CHEMBL4831562, “Discovery of Imidazole-Based Inhibitors of Plasmodium falciparum cGMP-Dependent Protein Kinase” (ACS Med Chem Lett, 2021).

Converted amounts (≈) assume the structure as drawn.

Series [1] can be described thus: Inhibition of Plasmodium falciparum PKG using FAM-labeled PKAtide or IP3R-derived peptide as a substrate preincubated for 15 mins followed by substrate addition and incubated for 60 mins by IMAP assay.
Series [2] relates to Plasmodium falciparum. The series can be described thus: Inhibition of Plasmodium falciparum PKG using FAM-labeled PKAtide or IP3R-derived peptide as a substrate at 1 uM preincubated for 15 mins followed by substrate addition and incubated for 60 mins by IMAP assay relative to control. The note with it: time 75.0 min.
The nature of series [3]: Toxicity against non-human primate hepatocytes infected with liver stage Plasmodium cynomolgi B incubated for 4 days starting on day 4 post-sporozoite inoculation. The series is classed as ADME, tissue-based, Hepatocyte. The note with it: primates, 96 h, time 4 day.
The subject of series [4] is Plasmodium cynomolgi. In words: Antiplasmodial activity against liver stage Plasmodium cynomolgi B infected in non-human primate hepatocytes assessed as inhibition of hypnozoite development incubated for 4 days from sporozoite addition by prophylactic assay. It is filed as functional, organism-based. The note with it: Hepatocyte, 96 h.
A short description of series [5]: Toxicity against non-human primate hepatocytes infected with liver stage Plasmodium cynomolgi B incubated for 4 days from sporozoite addition. It is filed as ADME, tissue-based, Hepatocyte. The settings on record: primates, 96 h, time 4 day.
Series [6] concerns Plasmodium cynomolgi. In words: Antiplasmodial activity against liver stage Plasmodium cynomolgi B infected in non-human primate hepatocytes assessed as inhibition of liver schizonts development incubated for 4 days from sporozoite addition by prophylactic assay. It is filed as functional, organism-based. The settings on record: Hepatocyte, 96 h.
Series [7] deals with Plasmodium cynomolgi. The series can be described thus: Antiplasmodial activity against liver stage Plasmodium cynomolgi B infected in non-human primate hepatocytes assessed as reduction in liver hypnozoites development incubated for 4 days starting on day 4 post-sporozoite inoculation by […] cure mode analysis. The series is classed as functional, organism-based. The settings on record: Hepatocyte, 96 h.

In series [8] the test system is Plasmodium cynomolgi. The series can be described thus: Antiplasmodial activity against liver stage Plasmodium cynomolgi B infected in non-human primate hepatocytes assessed as reduction in liver schizonts development incubated for 4 days starting on day 4 post-sporozoite inoculation by […] cure mode analysis. The series is classed as functional, organism-based. The note with it: Hepatocyte, 96 h.

Series [9] deals with Plasmodium berghei. In words: Antiplasmodial activity against luciferase expressing Plasmodium berghei hepatic stage sporozoites infected in HepG2 cells assessed as decrease in parasite infection incubated for 16 hrs followed by replacement with compound free medium measured after 48 hrs post infection by IVIS spectrum in vivo imaging analysis. It is filed as functional, organism-based.

The subject of series [10] is Plasmodium falciparum. The series can be described thus: Antiplasmodial activity against asexual blood stage Plasmodium falciparum 3D7. It is filed as functional, organism-based.
Series [11] is described as follows: Inhibition of Plasmodium falciparum PKG.
The test system of series [12] is Plasmodium berghei. In words: Antiplasmodial activity against luciferase expressing Plasmodium berghei sporozoites infected in HepG2 cells assessed as decrease in parasite infection at 2 uM incubated for 16 hrs followed by replacement with compound free medium and measured after 48 hrs post infection by IVIS spectrum in vivo imaging analysis relative to control. The series is classed as functional. The note with it: read-out: INH.

Series [13] concerns Plasmodium berghei. In words: Antiplasmodial activity against luciferase expressing Plasmodium berghei sporozoites infected in HepG2 cells assessed as decrease in parasite infection at 10 uM incubated for 16 hrs followed by replacement with compound free medium measured after 48 hrs post infection by IVIS spectrum in vivo imaging analysis relative to control. It is filed as functional. The note with it: read-out: INH.

The nature of series [14]: Kinetic aqueous solubility of the compound at pH 7.4 measured after 1 hr by UV/LC-MS/MS analysis. The series is classed as physicochemical. The note with it: buffer, read-out: Kinetic_solubility.
Series [15] can be described thus: Metabolic stability in mouse liver microsomes assessed as half life incubated for 60 mins in the presence of NADPH by LC-MS/MS analysis. It is filed as ADME, Microsome.
The species named for series [16] is Homo sapiens. The series can be described thus: Inhibition of human PKG using FAM-labeled PKAtide or IP3R-derived peptide as a substrate at 10 uM preincubated for 15 mins followed by substrate addition and incubated for 60 mins by IMAP assay relative to control. The settings on record: time 75.0 min.
In series [17] the test system is cGMP-dependent protein kinase (Plasmodium falciparum), W7JX98 [T618Q]. The series can be described thus: Inhibition of Plasmodium falciparum PKG T618Q mutant using FAM-labeled PKAtide or IP3R-derived peptide as a substrate at 10 uM preincubated for 15 mins followed by substrate addition and incubated for 60 mins by IMAP assay relative to control. The note with it: time 75.0 min.
Sequence of cGMP-dependent protein kinase (Plasmodium falciparum), W7JX98 [T618Q] (W7JX98 whole entry T618Q): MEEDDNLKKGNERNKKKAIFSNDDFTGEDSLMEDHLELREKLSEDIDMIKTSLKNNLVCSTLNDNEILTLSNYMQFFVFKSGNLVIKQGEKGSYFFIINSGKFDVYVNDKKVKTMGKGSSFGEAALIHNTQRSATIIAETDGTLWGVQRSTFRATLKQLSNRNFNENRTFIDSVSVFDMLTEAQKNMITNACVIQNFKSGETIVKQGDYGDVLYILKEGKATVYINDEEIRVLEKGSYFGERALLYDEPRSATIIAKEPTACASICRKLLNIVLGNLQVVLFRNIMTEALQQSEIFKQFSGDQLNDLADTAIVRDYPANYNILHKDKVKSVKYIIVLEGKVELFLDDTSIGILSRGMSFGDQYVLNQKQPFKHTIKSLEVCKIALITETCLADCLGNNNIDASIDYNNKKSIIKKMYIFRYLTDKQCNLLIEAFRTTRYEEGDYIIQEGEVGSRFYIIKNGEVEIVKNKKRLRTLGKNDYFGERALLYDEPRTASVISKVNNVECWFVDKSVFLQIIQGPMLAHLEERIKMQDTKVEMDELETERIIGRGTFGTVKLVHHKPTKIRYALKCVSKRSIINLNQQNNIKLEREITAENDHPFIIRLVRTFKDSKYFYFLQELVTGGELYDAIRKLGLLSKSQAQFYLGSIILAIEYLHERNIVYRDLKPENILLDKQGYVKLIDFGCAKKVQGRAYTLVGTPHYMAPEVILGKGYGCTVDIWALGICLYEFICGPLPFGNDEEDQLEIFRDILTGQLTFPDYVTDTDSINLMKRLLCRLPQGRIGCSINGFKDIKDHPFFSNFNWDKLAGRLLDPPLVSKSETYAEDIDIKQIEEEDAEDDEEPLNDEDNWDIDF

A short description of series [18]: Metabolic stability in human liver microsomes assessed as half life incubated for 60 mins in the presence of NADPH by LC-MS/MS analysis. The series is classed as ADME, Microsome.
Series [19] addresses Cytochrome P450 2C9 (Homo sapiens, UniProt P11712). The series can be described thus: Inhibition of human CYP2C9 using 7-methoxy-4(trifluoromethyl coumarin) as a substrate incubated for 15 mins by fluorescence based analysis. The series is classed as ADME.
In series [20] the target is Cytochrome P450 2D6 (Homo sapiens, UniProt P10635). The series can be described thus: Inhibition of human CYP2D6 using 3-[2-(N,N-diethylamino)ethyl]-7-methoxy-4-methyl coumarin as a substrate incubated for 45 mins by fluorescence based analysis. It is filed as ADME.
Sequence of Cytochrome P450 2D6 (P10635 whole entry): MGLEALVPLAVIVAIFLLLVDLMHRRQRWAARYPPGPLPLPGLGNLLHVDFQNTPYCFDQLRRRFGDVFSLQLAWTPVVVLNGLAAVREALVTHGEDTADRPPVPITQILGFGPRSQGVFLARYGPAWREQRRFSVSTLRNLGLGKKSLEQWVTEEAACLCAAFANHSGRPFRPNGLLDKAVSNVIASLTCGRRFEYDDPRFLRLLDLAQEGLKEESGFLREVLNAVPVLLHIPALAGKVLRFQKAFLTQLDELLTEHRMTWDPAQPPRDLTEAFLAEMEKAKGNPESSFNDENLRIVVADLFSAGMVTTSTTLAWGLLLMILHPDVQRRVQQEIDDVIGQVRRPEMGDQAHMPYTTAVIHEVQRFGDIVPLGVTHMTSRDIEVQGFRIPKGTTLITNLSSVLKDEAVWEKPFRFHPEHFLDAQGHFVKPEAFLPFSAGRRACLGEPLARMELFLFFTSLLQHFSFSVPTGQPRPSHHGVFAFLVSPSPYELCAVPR
The target in series [21] is Cytochrome P450 3A4 (Homo sapiens, UniProt P08684). The series can be described thus: Inhibition of human CYP3A4 using testosterone as a substrate by LC/MS/MS analysis. It is filed as ADME.
Sequence of Cytochrome P450 3A4 (P08684 whole entry): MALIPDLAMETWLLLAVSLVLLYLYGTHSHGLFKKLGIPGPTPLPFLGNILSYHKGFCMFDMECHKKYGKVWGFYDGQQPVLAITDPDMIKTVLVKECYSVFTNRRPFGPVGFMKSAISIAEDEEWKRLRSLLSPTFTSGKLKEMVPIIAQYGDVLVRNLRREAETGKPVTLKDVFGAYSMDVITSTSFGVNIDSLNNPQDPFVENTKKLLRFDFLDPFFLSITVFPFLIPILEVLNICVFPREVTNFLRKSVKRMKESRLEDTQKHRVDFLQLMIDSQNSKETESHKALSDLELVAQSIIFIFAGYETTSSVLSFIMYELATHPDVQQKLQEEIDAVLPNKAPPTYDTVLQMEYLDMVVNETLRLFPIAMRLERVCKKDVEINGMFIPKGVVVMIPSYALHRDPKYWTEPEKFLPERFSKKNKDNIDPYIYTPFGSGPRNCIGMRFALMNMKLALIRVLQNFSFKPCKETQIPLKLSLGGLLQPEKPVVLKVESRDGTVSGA

Sequence of Cytochrome P450 2C9 (P11712 whole entry): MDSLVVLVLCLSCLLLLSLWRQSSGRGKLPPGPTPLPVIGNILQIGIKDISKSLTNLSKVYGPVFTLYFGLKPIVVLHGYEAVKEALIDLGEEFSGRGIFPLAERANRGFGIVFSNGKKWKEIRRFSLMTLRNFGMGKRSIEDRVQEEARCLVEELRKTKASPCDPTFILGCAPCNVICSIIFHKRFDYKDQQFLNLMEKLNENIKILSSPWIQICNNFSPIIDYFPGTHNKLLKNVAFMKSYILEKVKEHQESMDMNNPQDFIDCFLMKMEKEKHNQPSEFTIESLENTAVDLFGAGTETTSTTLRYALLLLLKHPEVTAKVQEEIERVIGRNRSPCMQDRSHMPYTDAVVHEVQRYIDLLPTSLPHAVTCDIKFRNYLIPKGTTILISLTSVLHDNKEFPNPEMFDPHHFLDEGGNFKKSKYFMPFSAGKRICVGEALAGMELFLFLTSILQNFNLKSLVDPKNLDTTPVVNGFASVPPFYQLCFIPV

`Cc1cn(-c2ccnc(N[C@@H]3CCN(C(=O)c4nccs4)C3)n2)c(-c2cccc(OC(F)(F)F)c2)n1` returned a half-maximal inhibitory concentration (IC50) in series [1] of 150 nM.

`Cc1cn(-c2ccnc(N[C@@H]3CCN(C(=O)c4nccs4)C3)n2)c(-c2ccccc2Cl)n1`: the inhibition in series [2] is 47%.

On to `COc1cc(C)c2c(Oc3cccc(C(F)(F)F)c3)c(OC)cc(NC(C)CCCN)c2n1` (stereo not drawn) [TAFENOQUINE], for which the Activity is 18.61 µM in [3] and 13.82 µM in series [5]. Besides, the IC50 was determined as 140 nM in series [4], 190 nM in series [6], 3.5 µM in series [7] and 3.61 µM in [8].

In the case of `CN1CCC(c2cc(-c3ccc(F)cc3)c(-c3ccncc3)[nH]2)CC1`, the values for the EC50 in series [9] and in series [10] were 0.3 µM and 0.15 µM, respectively. In addition, the figures for the IC50 in series [11] and in [1] were 20 nM and 22 nM, respectively. Moreover, in [12], the percent decrease in parasite infection in HepG2 cells at 2 µM worked out at 91%. In series [13], the percent inhibition of parasite infection at 10 µM was determined as 94%.

Turning to `Cc1cn(-c2ccnc(NC3CCCN(C(=O)c4nccs4)C3)n2)c(-c2ccccc2)n1` (stereo not drawn), the inhibition in series [2] was 4%.

`Cc1cn(-c2ccnc(N[C@H]3CCN(C(=O)c4nccs4)C3)n2)c(-c2ccccc2)n1`: the inhibition in series [2] was determined as 4%.

In turn, `Cc1cn(-c2ccnc(NC3CCN(C(=O)c4nccs4)CC3)n2)c(-c2ccccc2)n1` came in with an inhibition in series [2] of 5%.

As for `Cc1cn(-c2ccnc(N[C@@H]3CCN(C(=O)c4nccs4)C3)n2)c(-c2ccccc2)n1`, the solubility kinetic at 1 h in series [14] came out at 200 µM (≈ 86.3 µg/mL). Also, the Activity in series [3] and in series [5] was above 20 µM in each case. The concentration for half-maximal inhibition (IC50) in series [4] is above 20000 nM; in series [6], 7910 nM; in series [7], above 20 µM; in [1], 320 nM; in [8] it was 11.6 µM. Also, in series [12], the percent decrease in parasite infection in HepG2 cells at 2 µM came out at 78%. Further, the half-life in series [15] and in series [18] was below 2 min each time. Further, the percent inhibition of parasite infection at 10 µM in series [13] stood at 89%. In addition, the inhibition in series [16] and in series [17] was 3% in each case.

Turning to `CCN(CC)Cc1onc(-c2cccc(Cl)c2)c1-c1ccnc(N[C@@H]2CCN(C(=O)c3ccsn3)C2)n1`, in series [11], the IC50 was 17 nM. Moreover, the percent decrease in parasite infection in HepG2 cells at 2 µM in [12] worked out at 0%.

As to `O=C(c1nccs1)N1CC[C@@H](Nc2nccc(-n3cc(C4CC4)nc3-c3ccccc3)n2)C1`, in series [14], the solubility kinetic at 1 h was found to be 92 µM (≈ 42.1 µg/mL). Further, the EC50 in series [9] was 20 µM; in series [10], 7.6 µM. For the same compound, the half-maximal inhibitory concentration (IC50) in [19] is above 10000 nM; in [20], above 10 µM; in series [21], 290 nM; in series [1], 100 nM. Further, the half-life in series [15] is below 2 min; in series [18], 4.8 min.

Turning to `Cc1cn(-c2ccnc(N[C@@H]3CCN(C(=O)c4nccs4)C3)n2)c(-c2ccc(Cl)cc2)n1`, the IC50 in series [1] was 1160 nM.

Turning to `Cc1cn(-c2ccnc(NCC3CCCN3C(=O)c3nccs3)n2)c(-c2ccccc2)n1` (stereo not drawn), the inhibition in [2] stood at 3%.

As for `COc1cccc(-c2nc(C)cn2-c2ccnc(N[C@@H]3CCN(C(=O)c4nccs4)C3)n2)c1`, in series [1], the midpoint of inhibition, the IC50, lay at 86 nM.

The compound `Cc1cn(-c2ccnc(NCC3CCN3C(=O)c3nccs3)n2)c(-c2ccccc2)n1` (stereo not drawn) returned an inhibition in series [2] of 2%.

`CO[C@@H]1[C@@H](OC)[C@H](C)C(O)(CC(=O)O)O[C@H]1[C@H](C)[C@H]1O[C@@]2(CC[C@@](C)([C@H]3CC[C@@](C)([C@@H]4O[C@@H]([C@H]5OC(C)(O)[C@H](C)C[C@@H]5C)C[C@@H]4O[C@@H]4C[C@H](OC)[C@@H](OC)[C@H](C)O4)O3)O2)C[C@H](O)[C@H]1C` (stereo partly drawn): the Activity in series [3] came out at 11.91 µM; in series [5], 5.78 µM. For the same compound, the half-maximal inhibitory concentration (IC50) worked out at 20 nM in series [4], 10 nM in [6], 0.03 µM in series [7] and 0.03 µM in [8].

Compound `Cc1cn(-c2ccnc(NCC3(NC(=O)c4nccs4)CC3)n2)c(-c2ccccc2)n1` gave an inhibition in series [2] of 6%.

Take `Cc1cn(-c2ccnc(N[C@@H]3CCN(C(=O)c4ccn(C)n4)C3)n2)c(-c2ccccc2)n1`: the IC50 in series [1] worked out at 1000 nM.

For `CCN(CC)Cc1onc(-c2cccc(Cl)c2)c1-c1ccnc(N[C@@H]2CCN(C(=O)c3ccon3)C2)n1`, the IC50 in [11] was determined as 13 nM. Also, the percent decrease in parasite infection in HepG2 cells at 2 µM in series [12] was found to be 52%.

Consider `O=C(c1nccs1)N1CC[C@@H](Nc2nccc(-n3cc(C4CC4)nc3-c3cccc(Cl)c3)n2)C1`, for which the solubility kinetic at 1 h in series [14] was found to be 28 µM (≈ 13.8 µg/mL). The EC50 turned out to be 5.7 µM in series [9] and 3.3 µM in [10]. Besides, the Activity in [3] and in series [5] was above 20 µM throughout. Besides, the concentration for half-maximal inhibition (IC50) was 9880 nM in [4]; 930 nM in [6]; 2800 nM in series [19]; above 10 µM in [20]; above 20 µM in series [7]; 190 nM in series [21]. The figures for the half-inhibitory concentration (IC50) in series [1] and in series [8] were 60 nM and 4.62 µM, respectively. In addition, the percent decrease in parasite infection in HepG2 cells at 2 µM in series [12] was 94%. For the same compound, the half-life in series [15] is below 2 min; in [18] it was 3.7 min. The percent inhibition of parasite infection at 10 µM in series [13] was 93%.
